What was measured:
Assay type in all cases: biochemical
MET = target: T1, MET (Homo sapiens, UniProt P08581); experiment: Radiometric protein kinase assay, MET; settings: 1 μM ATP; read-out: Inhibitory activity (IC50:μM) MET
T1 construct: host or cells: Sf9 insect cells (baculovirus)
Source text: (§1) All protein kinases were expressed in Sf9 insect cells as human recombinant GST-fusion proteins or His-tagged proteins by means of the baculovirus expression system. Kinases were purified by affinity chromatography using either GSH-agarose (Sigma) or Ni-NTH-agarose (Qiagen). The purity of each kinase was checked by SDS-PAGE/silver staining and the identity of each kinase was verified by western blot analysis with kinase specific antibodies or by mass spectroscopy.
A radiometric protein kinase assay (^33PanQinase® Activity Assay) was used for measuring the kinase activity of the 24 protein kinases. All kinase assays were performed in 96-well FlashPlates™ from Perkin Elmer (Boston, Mass., USA) in a 50 μl reaction volume. The reaction cocktail was pipetted in 4 steps in the following order: • 20 μl of assay buffer • 5 μl of ATP solution (in H2O) • 5 μl of test compound (in 10% DMSO) • 10 μl of substrate/10 […] of enzyme solution (premixed) […]
The reaction cocktails were incubated at 30° C. for 80 minutes. […] Incorporation of ^33Pi was determined with a microplate scintillation counter (Microbeta Trilux, Wallac).
The median value of the counts in column 1 (n=8) of each assay plate was defined as “low control”. This value reflects unspecific binding of radioactivity to the plate in the absence of a protein kinase but in the presence of the substrate. […]
(§2) As part of the data evaluation the low control value from a particular plate was subtracted from the high control value as well as from all 80 “compound values” of the corresponding plate. The residual activity (in %) for each well of a particular plate was calculated by using the following formula: Res. Activity (%)=100×[(cpm of compound−low control)/(high control−low control)]
The residual activities for each concentration and the compound IC50 values were calculated using Quattro Workflow V2.1.0.0 (Quattro Research GmbH, Munich, Germany; www.quattro-research.com). […]

VEGF-R2 = target: T2, VEGF-R2 (Homo sapiens, UniProt P35968); experiment: Radiometric protein kinase assay, VEGF-R2; settings: 1 μM ATP; read-out: Inhibitory activity (IC50:μM) VEGF-R2
T2 construct: host or cells: Sf9 insect cells (baculovirus)
Source text: as §1
(§3) A radiometric protein kinase assay (^33PanQinase® Activity Assay) was used for measuring the kinase activity of the 24 protein kinases. All kinase assays were performed in 96-well FlashPlates™ from Perkin Elmer (Boston, Mass., USA) in a 50 μl reaction volume. The reaction cocktail was pipetted in 4 steps in the following order: • 20 μl of assay buffer • 5 μl of ATP solution (in H2O) • 5 μl of test compound (in 10% DMSO) • 10 μl of substrate/10 […] of enzyme solution (premixed)
(§4) The assay for all enzymes contained 60 mM HEPES-NaOH, pH 7.5, 3 mM MgCl2, 3 mM MnCl2, 3 μM Na-orthovanadate, 1.2 mM DTT, 50 μg/ml PEG20000, 1 μM [γ-^33P]-ATP (approx. 5×10^05 cpm per well).
(§5) For the 24 kinase assays, the following amounts of enzyme and substrate were used per well:
(§6) The reaction cocktails were incubated at 30° C. for 80 minutes. The reaction was stopped with 50 μl of 2% (v/v) H3PO4, plates were aspirated and washed two times with 200 μl of 0.9% (w/v) NaCl or 200 μl H2O. Incorporation of ^33Pi was determined with a microplate scintillation counter (Microbeta Trilux, Wallac).
(§7) The median value of the counts in column 1 (n=8) of each assay plate was defined as “low control”. This value reflects unspecific binding of radioactivity to the plate in the absence of a protein kinase but in the presence of the substrate. The median value of the counts in column 7 of each assay plate (n=8) was taken as the “high control”, i.e. full activity in the absence of any inhibitor. The difference between high and low control was taken as 100% activity.
as §2
(§8) The residual activities for each concentration and the compound IC50 values were calculated using Quattro Workflow V2.1.0.0 (Quattro Research GmbH, Munich, Germany; www.quattro-research.com). The model used was “Sigmoidal response (variable slope)” with parameters “top” fixed at 100% and “bottom” at 0%.

FLT3 = target: T3, FLT3 (Homo sapiens, UniProt P36888); experiment: Radiometric protein kinase assay, FLT3; settings: 1 μM ATP; read-out: Inhibitory activity (IC50:μM) FLT3
T3 construct: host or cells: Sf9 insect cells (baculovirus)
T3 sequence (P36888 27-993): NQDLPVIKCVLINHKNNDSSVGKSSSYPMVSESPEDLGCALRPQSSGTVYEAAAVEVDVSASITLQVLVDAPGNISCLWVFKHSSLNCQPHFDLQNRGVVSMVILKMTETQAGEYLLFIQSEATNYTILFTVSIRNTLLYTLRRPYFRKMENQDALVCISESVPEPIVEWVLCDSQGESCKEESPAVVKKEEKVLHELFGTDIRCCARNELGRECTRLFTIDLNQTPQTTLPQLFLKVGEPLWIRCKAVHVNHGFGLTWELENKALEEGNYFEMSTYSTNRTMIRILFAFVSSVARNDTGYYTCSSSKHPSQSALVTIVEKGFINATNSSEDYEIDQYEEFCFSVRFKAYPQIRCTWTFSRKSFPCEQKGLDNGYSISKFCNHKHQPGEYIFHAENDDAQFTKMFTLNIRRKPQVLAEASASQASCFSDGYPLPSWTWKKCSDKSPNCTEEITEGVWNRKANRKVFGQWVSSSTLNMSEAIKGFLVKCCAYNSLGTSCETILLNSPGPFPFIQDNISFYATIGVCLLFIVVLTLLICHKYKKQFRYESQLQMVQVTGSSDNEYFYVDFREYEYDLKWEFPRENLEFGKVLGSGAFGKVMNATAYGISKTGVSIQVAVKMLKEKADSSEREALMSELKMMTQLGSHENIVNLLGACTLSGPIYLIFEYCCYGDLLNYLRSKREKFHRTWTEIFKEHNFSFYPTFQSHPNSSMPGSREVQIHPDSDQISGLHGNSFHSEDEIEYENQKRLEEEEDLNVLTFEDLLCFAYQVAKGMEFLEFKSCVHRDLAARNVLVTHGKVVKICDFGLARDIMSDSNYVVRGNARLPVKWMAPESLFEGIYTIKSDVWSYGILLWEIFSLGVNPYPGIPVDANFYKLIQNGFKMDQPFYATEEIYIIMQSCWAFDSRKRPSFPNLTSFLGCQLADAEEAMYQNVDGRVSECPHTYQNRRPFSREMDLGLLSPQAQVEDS
Source text: as §1, §3, §4, §5, §6, §7, §2, §8

T1 sequence (P08581 25-1390): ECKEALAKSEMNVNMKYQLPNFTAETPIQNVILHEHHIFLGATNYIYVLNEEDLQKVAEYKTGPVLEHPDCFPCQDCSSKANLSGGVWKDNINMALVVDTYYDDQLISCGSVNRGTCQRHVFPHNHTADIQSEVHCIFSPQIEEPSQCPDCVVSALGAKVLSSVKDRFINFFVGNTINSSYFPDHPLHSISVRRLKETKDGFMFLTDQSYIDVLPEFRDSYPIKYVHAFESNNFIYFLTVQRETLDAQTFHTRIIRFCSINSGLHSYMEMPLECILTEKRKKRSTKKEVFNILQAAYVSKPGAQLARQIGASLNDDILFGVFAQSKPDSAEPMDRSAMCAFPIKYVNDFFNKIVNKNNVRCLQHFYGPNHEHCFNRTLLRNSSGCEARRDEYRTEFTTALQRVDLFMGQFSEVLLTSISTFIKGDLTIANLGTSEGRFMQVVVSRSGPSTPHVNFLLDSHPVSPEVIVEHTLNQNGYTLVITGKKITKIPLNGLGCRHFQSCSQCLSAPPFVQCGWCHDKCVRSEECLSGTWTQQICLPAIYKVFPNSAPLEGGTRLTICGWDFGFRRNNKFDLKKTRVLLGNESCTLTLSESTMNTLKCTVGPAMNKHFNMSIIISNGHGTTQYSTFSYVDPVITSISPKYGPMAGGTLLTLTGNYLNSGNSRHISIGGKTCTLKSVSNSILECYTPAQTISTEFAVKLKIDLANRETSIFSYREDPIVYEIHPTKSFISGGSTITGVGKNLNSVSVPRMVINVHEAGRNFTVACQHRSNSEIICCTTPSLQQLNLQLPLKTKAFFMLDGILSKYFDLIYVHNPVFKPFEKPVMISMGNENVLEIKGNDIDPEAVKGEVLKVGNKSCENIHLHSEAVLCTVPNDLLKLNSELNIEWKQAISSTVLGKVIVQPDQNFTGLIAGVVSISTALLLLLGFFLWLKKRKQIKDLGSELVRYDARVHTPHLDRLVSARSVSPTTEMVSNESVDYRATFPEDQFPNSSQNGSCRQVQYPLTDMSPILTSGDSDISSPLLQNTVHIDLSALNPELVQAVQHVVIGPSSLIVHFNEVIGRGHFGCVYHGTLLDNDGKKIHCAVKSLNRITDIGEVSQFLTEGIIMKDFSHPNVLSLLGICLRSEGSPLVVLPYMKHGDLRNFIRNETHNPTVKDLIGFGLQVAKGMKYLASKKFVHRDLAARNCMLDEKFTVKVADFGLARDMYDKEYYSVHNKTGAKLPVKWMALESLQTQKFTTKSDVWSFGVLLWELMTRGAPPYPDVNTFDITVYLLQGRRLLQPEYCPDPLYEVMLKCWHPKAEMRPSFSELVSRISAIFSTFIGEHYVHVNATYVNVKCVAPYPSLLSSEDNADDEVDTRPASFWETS
T2 sequence (P35968 20-1356): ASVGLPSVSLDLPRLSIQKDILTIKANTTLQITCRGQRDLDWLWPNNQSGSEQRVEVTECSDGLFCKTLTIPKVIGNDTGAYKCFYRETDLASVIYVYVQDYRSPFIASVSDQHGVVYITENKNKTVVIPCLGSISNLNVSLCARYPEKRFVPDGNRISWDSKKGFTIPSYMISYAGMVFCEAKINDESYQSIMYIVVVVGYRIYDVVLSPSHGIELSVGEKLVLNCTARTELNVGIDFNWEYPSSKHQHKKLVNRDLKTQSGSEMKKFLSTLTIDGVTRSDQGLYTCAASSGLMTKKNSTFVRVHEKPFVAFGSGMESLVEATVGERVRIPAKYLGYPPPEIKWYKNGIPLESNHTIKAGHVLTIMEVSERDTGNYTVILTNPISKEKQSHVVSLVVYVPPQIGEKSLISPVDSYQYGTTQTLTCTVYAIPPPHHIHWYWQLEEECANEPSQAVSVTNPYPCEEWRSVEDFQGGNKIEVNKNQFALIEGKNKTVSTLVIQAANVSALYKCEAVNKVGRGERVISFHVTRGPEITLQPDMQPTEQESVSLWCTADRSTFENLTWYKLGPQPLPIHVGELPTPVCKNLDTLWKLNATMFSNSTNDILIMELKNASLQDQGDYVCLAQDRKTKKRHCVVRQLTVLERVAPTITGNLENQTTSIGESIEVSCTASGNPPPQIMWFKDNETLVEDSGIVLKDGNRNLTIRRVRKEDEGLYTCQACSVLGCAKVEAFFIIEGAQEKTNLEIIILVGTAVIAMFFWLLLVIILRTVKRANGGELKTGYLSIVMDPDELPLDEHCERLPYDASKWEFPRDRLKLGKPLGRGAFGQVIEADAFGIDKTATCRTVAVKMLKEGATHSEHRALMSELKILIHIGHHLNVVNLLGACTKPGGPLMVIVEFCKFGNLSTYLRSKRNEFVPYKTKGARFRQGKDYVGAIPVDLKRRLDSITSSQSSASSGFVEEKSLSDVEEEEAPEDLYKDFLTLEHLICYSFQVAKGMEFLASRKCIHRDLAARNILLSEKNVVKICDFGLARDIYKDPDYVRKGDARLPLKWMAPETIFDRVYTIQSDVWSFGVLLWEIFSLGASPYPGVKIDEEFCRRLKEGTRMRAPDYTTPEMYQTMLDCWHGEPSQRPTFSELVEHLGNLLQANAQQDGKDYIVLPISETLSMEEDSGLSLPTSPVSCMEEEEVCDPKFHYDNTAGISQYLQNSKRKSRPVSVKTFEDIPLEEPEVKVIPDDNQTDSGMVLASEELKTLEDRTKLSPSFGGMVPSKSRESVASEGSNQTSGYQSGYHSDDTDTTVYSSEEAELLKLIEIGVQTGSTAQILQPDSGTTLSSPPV

IC50 (MET) [µM]	IC50 (VEGF-R2) [µM]	IC50 (FLT3) [µM]	Compound
36	25	44	O=C1/C=C/CCC2OC2C[C@@H](Cc2ccccc2)OC(=O)c2c(O)cc(O)cc2C1 (stereo partly drawn) [A-6]
–	30	45	CC(C)[C@@H]1CC2OC2CC/C=C/C(=O)Cc2c(Cl)c(O)cc(O)c2C(=O)O1 (stereo partly drawn) [A-4]
–	19	–	O=C1/C=C/CCC2OC2C[C@H](c2ccccc2)OC(=O)c2c(O)cc(O)c(Cl)c2C1 (stereo partly drawn) [A-5]
29	20	23	O=C1Cc2c(Cl)c(O)cc(O)c2C(=O)O[C@H](c2ccccc2)C/C=C/CCC(Cl)C1 (stereo partly drawn) [A-3]
32	19	23	COC1CC/C=C/C[C@H](c2ccccc2)OC(=O)c2c(O)cc(O)c(Cl)c2CC(=O)C1 (stereo partly drawn) [A-2]

From patent US8450305B2, “Macrocyclic compounds useful as inhibitors of kinases and HSP90” (Universite de Strasbourg, priority 2006, dated 2013)
